The numbers were not newly measured in US20190282525A1, “TIOPRONIN ORAL COMPOSITION” (CRONUS RESEARCH LABS PRIVATE LIMITED, priority 2018, published 2019), which cites them from elsewhere.

The conditions of the series: 'might be expected'.

Molecules are shown by their SMILES.

As to `CC(S)C(=O)NCC(=O)O` (stereo not drawn) [tiopronin, α-mercaptopropionylglycine], the “reduction in urinary cystine” value (tiopronin dosage of 1 g/day) was 250 to 350 mg/day. For the same compound, the “decline in urinary cystine” value (tiopronin dosage of 2 g/day) is reported as “approximately 500 mg/day”.
